PMC7074905, “Multivalent Lactose–Ferrocene Conjugates Based on Poly (Amido Amine) Dendrimers and Gold Nanoparticles as Electrochemical Probes for Sensing Galectin-3” (Nanomaterials, 2020)

Target: T1, Human galectin-3 (Gal-3) (Homo sapiens, UniProt P17931)
T1 construct: gene LGALS3; mainly monomeric in solution
Assay: isothermal titration calorimetry
Format: binding
Conditions: 20 mM phosphate pH 7.2, 150 mM NaCl, 25 °C; equal and independent sites model, n = 1.00 buffer and model; tetravalent ligand, n = 0.19 ± 0.05, cross-linking; read-out: K.10^-4 (M^-1)
Description: isothermal titration calorimetry on Human galectin-3 (Gal-3)

T1 sequence (P17931 2-250): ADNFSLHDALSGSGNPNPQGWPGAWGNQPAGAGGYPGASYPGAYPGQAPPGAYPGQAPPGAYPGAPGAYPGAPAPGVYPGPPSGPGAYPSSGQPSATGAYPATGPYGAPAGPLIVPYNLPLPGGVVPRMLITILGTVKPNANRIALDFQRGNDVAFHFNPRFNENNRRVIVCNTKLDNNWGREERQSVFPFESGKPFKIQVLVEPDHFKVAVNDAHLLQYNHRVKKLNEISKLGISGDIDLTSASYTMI

For “G0-PAMAM-(COCH2CH2TACH2FcCH2TACH2Lac)4 [compound 12]”, the Kd was 3.14 µM.
